Conditions: Liquid, Ebulliometric method (Recirculating still)

CC(C)=C(C)C [2,3-dimethyl-2-butene]
Conditions	vapor or sublimation pressure [kPa]
336.5 K	73.5
338.2 K	77.5
340.6 K	84.2
342.65 K	90.2
344.2 K	94.7
346.24 K	101.2
347.65 K	105.3
350.1 K	113.9
353.46 K	125.5
355.35 K	133.3
357.22 K	140.4
362.8 K	164.8
365.76 K	179.5
368.05 K	190.9
370.36 K	202.8
373.18 K	218.8
375.2 K	230.4
376.5 K	238.5
379.15 K	255.1
381.62 K	271.2
383.05 K	281.3
384.7 K	292.1
386.65 K	306.8
388.2 K	318.4
